Drawing on US5714494A, “Xanthines in the 7th position with a benzyl acetic acid moiety” (Bayer Aktiengesellschaft, priority 1995, dated 1998), this text covers IC50 and ED50 for 38 compounds.

For orientation: IC50 means the point on the concentration scale where inhibition reaches its midpoint. A word on the ED50: it is the midpoint of the dose-response relation.

The test system of test [1] is ApoB-100-associated lipoproteins. The test can be described thus: Inhibition of the release of ApoB-100-associated lipoproteins from HepG2 cells (immunoassay for human LDL). The note with it: light absorption 450 nm vs solvent control. The class given is cell-based. As for the experimental part:
The test for detecting inhibition of the release of ApoB-100-associated lipoproteins from liver cells was carried out in vitro using cultured liver cells, preferably using cells of the human line HepG2. These cells are grown under standard conditions in medium for the culture of eucaryotic cells, preferably in RPMI 1640 using 10% foetal calf serum. HepG2 cells synthesize and secrete into the culture supernatant ApoB-100-associated lipoprotein particles which in principle are synthesized in a similar manner to the VLDL and LDL particles which are to be found in the plasma.
These particles can be detected using an immunoassay for human LDL. This immunoassay is carried out using antibodies which have been induced in the rabbit against human LDL under standard conditions. The anti-LDL antibodies (rabbit anti-LDL-Ab) were purified by affinity chromatography on an immunosorbent using human LDL. These purified rabbit anti-LDL Ab are adsorbed on the surface of plastic. Expediently, this adsorption is carried out on the plastic surface of microtitre plates having 96 wells, preferably on MaxiSorp plates. If ApoB-100-associated particles are present in the supernatant of Hep-G2 cells, these can bind to the insolubilized rabbit anti-LDL Ab, and an immune complex is formed which is bound to the plastic surface. Unbound proteins are removed by washing. The immune complex located on the plastic surface is detected using monoclonal antibodies which have been induced against human LDL according to standard conditions and purified. These antibodies were conjugated with the enzyme peroxidase. Peroxidase converts the colourless substrate TMB into a coloured product in the presence of H2 O2. After acidification of the reaction mixture using H2 SO4, the specific light absorption at 450 mn is determined, which is a measure of the amount of ApoB-100-associated particles which have been secreted into the culture supernatant by the HepG2 cells.
The IC50 value indicates at which substance concentration the light absorption is inhibited by 50% in comparison with the control (solvent control without substance).

The subject of test [2] is intestinal triglyceride absorption. The test can be described thus: Inhibition of intestinal triglyceride absorption in vivo (rats). Further details: species or system male Wistar rats. Conditions: Rattus norvegicus, po; serum triglyceride increase 2 h after triglyceride loading; fasting rats; read-out: Absorption ED50 or % inhibition. The protocol: The substances which are to be investigated for their triglyceride absorption-inhibiting action in vivo are administered orally to male Wistar rats having a body weight of between 170 and 230 g. For this purpose, the animals are divided into groups of 6 animals 18 hours before administration of the substance and the feed is then withdrawn from them. Drinking water is available to the animals ad libitum. The animals of the control groups receive an aqueous tragacanth suspension or a tragacanth suspension which contains olive oil. The tragacanth-olive oil suspension is prepared using an Ultra-Turrax. The substances to be investigated are suspended directly before substance administration in a corresponding tragacanth-olive oil suspension, also using an Ultra-Turrax.
Before stomach tube application, blood is taken from each rat by puncture of the retroorbital venous plexus to determine the basal serum triglyceride content. The tragacanth suspension, the tragacanth-olive oil suspensions without substance (control animals) and the substances suspended in a corresponding tragacanth-olive oil suspension are then administered to the fasting animals using a stomach tube. Further taking of blood for the determination of the postprandial serum triglyceride rise is carried out, as a rule, 1,2 and 3 hours after stomach tube application.
The blood samples are centrifuged and, after recovering the serum, the triglycerides are determined photometrically using an EPOS analyzer 5060 (Eppendorf Geratebau, Netheler & Hinz GmbH, Hamburg). The triglycerides are determined by fully enzymatic means using a commercially available UV test.
The postprandial serum triglyceride increase is determined by subtraction of the triglyceride preliminary value of each animal from its corresponding postprandial triglyceride concentrations (1,2 and 3 hours after administration).
The differences (in mmol/l) at each time 1, 2 and 3 hours) are averaged in the groups, and the average values of the serum triglyceride increase (ΔTG) of the substance-treated animals are compared with the animals which only received the tragacanth-oil suspension.
Likewise, the serum triglyceride course of the control animals which received only tragacanth is calculated. The substance effect at each time (1, 2 or 3 hours) is determined as follows and given in Δ% of the oil-loaded control. [formula]
Effect of 10 mg of test substance/kg of body weight p.o. on the triglyceride increase (Δ%) 2 h after a triglyceride loading in the serum of fasting rats. The serum triglyceride increase of fat-loaded control animals based on the serum triglyceride level of tragacanth control animals corresponds to 100%. n=6 animals per group.
Statistical assessment was carried out using student3 s t test after prior checking of the variances for homogeneity.

The mark [3] stands for this setting: Homo sapiens, HepG2, HepG2 cells.

The structures appear in SMILES notation.

On to `Cn1c(=O)c2c(nc(Cc3ccc(F)cc3)n2Cc2ccc(C(C(=O)N[C@@H](CO)c3ccccc3)C3CCCC3)cc2)n(C)c1=O` (single isomer, unassigned) [Example 195], for which inhibition in test [1] (HepG2 cells) was half-maximal at 5 nM (IC50). This counts as single-digit nanomolar.
On the same count and under the same terms, as for `Cn1c(=O)c2c(nc(Cc3ccc(F)cc3)n2Cc2ccc(C(C(=O)N[C@@H](CO)c3ccccc3)C3CCCC3)cc2)n(C)c1=O` (single isomer, unassigned) [Example 196], the figure is 61 nM.
On the same count and under the same terms, as for `COc1cccc(Cc2nc3c(c(=O)n(C)c(=O)n3C)n2Cc2ccc(C(C(=O)N[C@@H](CO)c3ccccc3)C3CCCC3)cc2)c1` (single isomer, unassigned) [Example 199], the figure is 5 nM; as for `COc1cccc(Cc2nc3c(c(=O)n(C)c(=O)n3C)n2Cc2ccc(C(C(=O)N[C@@H](CO)c3ccccc3)C3CCCC3)cc2)c1` (single isomer, unassigned) [Example 200], 24 nM.
Same read-out and setting: with `COc1ccc(Cc2nc3c(c(=O)n(C)c(=O)n3C)n2Cc2ccc(C(C(=O)N[C@@H](CO)c3ccccc3)C3CCCC3)cc2)cc1` (single isomer, unassigned) [Example 202] the figure was 9 nM; with `COc1ccc(Cc2nc3c(c(=O)n(C)c(=O)n3C)n2Cc2ccc(C(C(=O)N[C@@H](CO)c3ccccc3)C3CCCC3)cc2)cc1` (single isomer, unassigned) [Example 203], 63 nM.
`CCn1c(=O)c2c(ncn2Cc2ccc(C(C(=O)N[C@@H](CO)c3ccccc3)C3CCCC3)cc2)n(CC)c1=O` (single isomer, unassigned) [Example 212] gave an IC50 in test [1] (setting [3]) of 8 nM.
On the same count and under the same terms, as for `Cn1c(=O)c2c(ncn2Cc2ccc(C(C(=O)N[C@@H](CO)c3ccccc3)C3CCCC3)cc2)n(C)c1=O` (stereo partly drawn) [Example 113], the figure is 58 nM.
In test [1] (setting [3]), `Cc1nc2c(c(=O)n(C)c(=O)n2C)n1Cc1ccc(C(C(=O)N[C@@H](CO)c2ccccc2)C2CCCC2)cc1` (stereo partly drawn) [Example 119] showed an IC50 of 11 nM.
For the compound `CCc1nc2c(c(=O)n(C)c(=O)n2C)n1Cc1ccc(C(C(=O)N[C@@H](CO)c2ccccc2)C2CCCC2)cc1` (stereo partly drawn) [Example 120], the 50% inhibitory concentration (IC50) in test [1] (setting [3]) worked out at 28 nM.
On the same count and under the same terms, as for `Cn1c(=O)c2c(nc(C3CC3)n2Cc2ccc(C(C(=O)N[C@@H](CO)c3ccccc3)C3CCCC3)cc2)n(C)c1=O` (stereo partly drawn) [Example 121], the figure is 36 nM; as for `Cn1c(=O)c2c(nc(C3CCCC3)n2Cc2ccc(C(C(=O)N[C@@H](CO)c3ccccc3)C3CCCC3)cc2)n(C)c1=O` (stereo partly drawn) [Example 122], 48 nM.
Take `Cn1c(=O)c2c(nc(CC3CCCCC3)n2Cc2ccc(C(C(=O)N[C@@H](CO)c3ccccc3)C3CCCC3)cc2)n(C)c1=O` (stereo partly drawn) [Example 123]: the 50% effective dose (ED50) in test [2] was 2 mg/kg. The compound also gave an IC50 in test [1] (setting [3]) of 8 nM.
As to `Cn1c(=O)c2c(nc(Cc3cccs3)n2Cc2ccc(C(C(=O)N[C@@H](CO)c3ccccc3)C3CCCC3)cc2)n(C)c1=O` (stereo partly drawn) [Example 126], in test [1] (setting [3]), the IC50 turned out to be 41 nM.
Still for that read-out and setting: with `Cc1ccccc1-c1nc2c(c(=O)n(C)c(=O)n2C)n1Cc1ccc(C(C(=O)N[C@@H](CO)c2ccccc2)C2CCCC2)cc1` (stereo partly drawn) [Example 132] the figure was 743 nM; with `Cc1ccc(-c2nc3c(c(=O)n(C)c(=O)n3C)n2Cc2ccc(C(C(=O)N[C@@H](CO)c3ccccc3)C3CCCC3)cc2)c(C)c1` (stereo partly drawn) [Example 138], 403 nM.
The same measure, in the same setting: as for `Cn1c(=O)c2c(nc(-c3ccc(-c4ccccc4)cc3)n2Cc2ccc(C(C(=O)N[C@@H](CO)c3ccccc3)C3CCCC3)cc2)n(C)c1=O` (stereo partly drawn) [Example 139], the figure is 90 nM; as for `Cn1c(=O)c2c(nc(-c3cccnc3)n2Cc2ccc(C(C(=O)N[C@@H](CO)c3ccccc3)C3CCCC3)cc2)n(C)c1=O` (stereo partly drawn) [Example 152], 169 nM; as for `Cc1ccc(-c2nc3c(c(=O)n(C)c(=O)n3C)n2Cc2ccc(C(C(=O)N[C@@H](CO)c3ccccc3)C3CCCC3)cc2)s1` (stereo partly drawn) [Example 163], 131 nM.
`Cn1c(=O)c2c(nc(-c3cc(Br)cs3)n2Cc2ccc(C(C(=O)N[C@@H](CO)c3ccccc3)C3CCCC3)cc2)n(C)c1=O` (stereo partly drawn) [Example 164] returned an IC50 in test [1] (setting [3]) of 12 nM.
Same read-out and setting: with `Cn1c(=O)c2c(nc(Cc3ccccc3)n2Cc2ccc(C(C(=O)N[C@@H](CO)c3ccccc3)C3CCCC3)cc2)n(C)c1=O` (stereo partly drawn) [Example 168] the figure was 16 nM; with `Cn1c(=O)c2c(nc(Cc3ccccc3)n2Cc2ccc(C(C(=O)N[C@@H](CO)c3ccccc3)C3CCCCC3)cc2)n(C)c1=O` (stereo partly drawn) [Example 171], 2 nM; with `Cn1c(=O)c2c(nc(Cc3ccc(-c4ccccc4)cc3)n2Cc2ccc(C(C(=O)N[C@@H](CO)c3ccccc3)C3CCCC3)cc2)n(C)c1=O` (stereo partly drawn) [Example 185], 29 nM.
`Cn1c(=O)c2c(nc(Cc3ccccc3Cl)n2Cc2ccc(C(C(=O)N[C@@H](CO)c3ccccc3)C3CCCC3)cc2)n(C)c1=O` (stereo partly drawn) [Example 188] gave a half-inhibitory concentration (IC50) in test [1] (setting [3]) of 23 nM. The IC50 values of the last two compounds are within 1.5-fold of each other.
Still for that read-out and setting: with `Cn1c(=O)c2c(nc(Cc3ccc(F)cc3)n2Cc2ccc(C(C(=O)N[C@@H](CO)c3ccccc3)C3CCCC3)cc2)n(C)c1=O` (stereo partly drawn) [Example 194] the figure was 8 nM; with `COc1cccc(Cc2nc3c(c(=O)n(C)c(=O)n3C)n2Cc2ccc(C(C(=O)N[C@@H](CO)c3ccccc3)C3CCCC3)cc2)c1` (stereo partly drawn) [Example 198], 5 nM.
Same read-out and setting: as for `Cn1c(=O)c2c(nc(Cc3ccccc3O)n2Cc2ccc(C(C(=O)N[C@@H](CO)c3ccccc3)C3CCCC3)cc2)n(C)c1=O` (stereo partly drawn) [Example 204], the figure is 16 nM.
On to `Cn1c(=O)c2c(nc(Cc3cccc(O)c3)n2Cc2ccc(C(C(=O)N[C@@H](CO)c3ccccc3)C3CCCC3)cc2)n(C)c1=O` (stereo partly drawn) [Example 207], for which, in test [1] (setting [3]), the half-maximal inhibitory concentration (IC50) came to 40 nM. This IC50 is about 2.5-fold higher than that of the compound before.
The same measure, in the same setting: with `CCn1c(=O)c2c(ncn2Cc2ccc(C(C(=O)N[C@@H](CO)c3ccccc3)C3CCCC3)cc2)n(CC)c1=O` (stereo partly drawn) [Example 211] the figure was 9 nM; with `CCc1nc2c(c(=O)n(CC)c(=O)n2CC)n1Cc1ccc(C(C(=O)N[C@@H](CO)c2ccccc2)C2CCCC2)cc1` (stereo partly drawn) [Example 215], 3 nM; with `CCn1c(=O)c2c(nc(C3CC3)n2Cc2ccc(C(C(=O)N[C@@H](CO)c3ccccc3)C3CCCC3)cc2)n(CC)c1=O` (stereo partly drawn) [Example 216], 34 nM.
Still for that read-out and setting: with `CCn1c(=O)c2c(nc(-c3ccccc3)n2Cc2ccc(C(C(=O)N[C@@H](CO)c3ccccc3)C3CCCC3)cc2)n(CC)c1=O` (stereo partly drawn) [Example 217] the figure was 11 nM; with `CCn1c(=O)c2c(nc(-c3ccc(C)cc3)n2Cc2ccc(C(C(=O)N[C@@H](CO)c3ccccc3)C3CCCC3)cc2)n(CC)c1=O` (stereo partly drawn) [Example 218], 8 nM; with `CCn1c(=O)c2c(nc(-c3cccs3)n2Cc2ccc(C(C(=O)N[C@@H](CO)c3ccccc3)C3CCCC3)cc2)n(CC)c1=O` (stereo partly drawn) [Example 219], 5 nM.
On the same count and under the same terms, as for `Cc1nc2c(c(=O)n(C)c(=S)n2C)n1Cc1ccc(C(C(=O)N[C@@H](CO)c2ccccc2)C2CCCC2)cc1` (stereo partly drawn) [Example 223], the figure is 4 nM; as for `CCc1nc2c(c(=O)n(C)c(=S)n2C)n1Cc1ccc(C(C(=O)N[C@@H](CO)c2ccccc2)C2CCCC2)cc1` (stereo partly drawn) [Example 224], 4 nM.
`Cn1c(=O)c2c(nc(-c3cccs3)n2Cc2ccc(C(C(=O)N[C@@H](CO)c3ccccc3)C3CCCC3)cc2)n(C)c1=S` (stereo partly drawn) [Example 225] showed a concentration for half-maximal inhibition (IC50) in test [1] (setting [3]) of 4 nM. This counts as single-digit nanomolar.
On the same count and under the same terms, with `Cc1ccc(-c2nc3c(c(=O)n(C)c(=S)n3C)n2Cc2ccc(C(C(=O)N[C@@H](CO)c3ccccc3)C3CCCC3)cc2)cc1` (stereo partly drawn) [Example 226] the figure was 11 nM.
